Laboratory results published in article PMC5225203, “Multiparameter toxicity assessment of novel DOPO-derived organophosphorus flame retardants” (Archives of Toxicology, 2016).

Columns and labels:
[1] = test system: human alveolar epithelial cell line A549; experiment: Acute cytotoxicity, MTS reduction, A549; format: cell-based; details: A549, 48 h; for cell damage (viability, MTS reduction): concentrations as high as 400 µM; for concentration producing acute toxicity: MTS
Experimental: The human alveolar epithelial cell line A549 (ATCC: CCL-185) was grown in Roswell Park Memorial Institute (RPMI-1640) medium (Sigma-Aldrich) supplemented with 10 % FCS (Lonza), 2 mM L-glutamine (Gibco), 50 µg/mL penicillin (Gibco), 50 µg/mL streptomycin (Gibco), and 100 µg/mL neomycin (Gibco) at 37 °C in a humidified atmosphere containing 5 % CO2 (hereafter referred to as complete cell culture medium and standard growth conditions, respectively). Cells were subcultured at approximately 80–90 % confluency using 0.5 % trypsin–EDTA (Sigma-Aldrich). For viability assessment, 1.5 × 10^4 cells per well were seeded in 200 µL complete cell culture medium in a 96-well plate and grown overnight under standard growth conditions, after which the cells were treated for 48 h with 200 µL standard growth medium per well containing increasing concentrations of the flame retardants or positive control agent CdSO4. CellTiter96® AQueous One Solution (Promega) containing MTS (3-(4,5-dimethylthiazol-2-yl)-5-(3-carboxymethoxy-phenyl)-2-(4-sulfophenyl)-2H) as a water-soluble tetrazolium compound was used according to the manufacturer’s protocol. Absorption was detected at 490 nm.

[2] = test system: ARE-dependent luciferase expression in KeratinoSens cells; experiment: KeratinoSens skin sensitization assay; format: cell-based; details: for skin sensitizer classification / ARE-dependent luciferase expression: KeratinoSens; for ARE-dependent luciferase expression / cell viability (PrestoBlue) in KeratinoSens cells: 48 h
Experimental: Generation of the stable KeratinoSens™ cell line was previously described in detail (Emter et al. [2010]). KeratinoSens™ cells were maintained in DMEM containing glutamax (Gibco/Invitrogen), 9 % FCS, and 0.5 mg/mL G418. For the experiments, KeratinoSens™ cells were seeded onto 96-well plates at a density of 10,000 cells per well in 125 µL medium without G418. After 24 h, the medium was replaced with 200 µL DMEM containing 1 % FCS and the test compounds. After a 2-day incubation period at 37 °C in an atmosphere containing 5 % CO2, the cells were washed once with PBS and a resazurin reduction assay (PrestoBlue®) was carried out in order to compare the viability of the differently treated groups. Fluorescence intensity was measured at 550 nmex and 590 nmem. After another washing step with PBS, cell lysis was performed using 20 µL/well passive lysis buffer (Promega) for 20 min at room temperature. Luciferase activity was measured by applying 50 µL luciferase substrate automatically to each well and detecting the resulting luminescence. Compounds were considered as skin sensitizers when a statistically significant induction of luciferase activity above a defined threshold of ≥1.5 in the absence of impaired cell viability was observed (Emter et al. [2010]; Natsch et al. [2011]).

[3] = test system: human dorsal root ganglia-like cells (hESC-H9 derived peripheral neurons); experiment: Peripheral neurotoxicity test (PeriTox-test); format: cell-based; details: 48 h
Experimental: The human pluripotent stem cell (hPSC) line H9 (WA09 line) was obtained from WiCell (Madison, WI, USA). Import of cells and experiments was authorized under license #170-79-1-4-27 (Robert Koch Institute, Berlin, Germany). Cells were cultured according to standard protocols (Thomson et al. [1998]) and differentiated into dorsal root ganglia-like cells as described earlier (Chambers et al. [2012]), with slight modifications. Briefly, neural differentiation was promoted by adding neural differentiation medium and the combination of 6 small molecule pathway inhibitors [noggin (35 ng/mL; R&D Systems, Minneapolis, MN, USA), dorsomorphin (600 nM; Tocris Bioscience, Bristol, UK), […] (10 μM; Tocris Bioscience, Bristol, UK), CHIR99021 (1.5 µM; Axon Medchem, Vienna, VA, USA), SU5402 (1.5 µM; Tocris Bioscience, Bristol, UK), and DAPT (5 µM; Merck, Darmstadt, Germany)]. The cells were cryopreserved on day 8′ of differentiation (DoD 8′). For each experiment, cells were thawed in neural differentiation medium supplemented with CHIR99021 (1.5 µM), SU5402 (1.5 µM), and DAPT (5 µM). For the peripheral neurotoxicity test (PeriTox-test), test chemicals were serially diluted in differentiation medium containing BDNF, GDNF, and NGF (25 ng/mL; R&D Systems, Minneapolis, USA) and added to the cells on day 3 after thawing. After 48 h, neurite area and viability were assessed as described earlier (Krug et al. [2013]). Briefly, cells were loaded with 1 µM calcein-AM and 1 µg/mL H-33342 for 1 h at 37 °C. For image acquisition, an Array-Scan VTI HCS (high content screening) microscope (Cellomics, Waltham, MA USA) was used. In an automated procedure, all H-33342^+/calcein^+ cells were analyzed as viable cells. In channel 1, H-33342^+ nuclei were detected according to their size, area, shape, and intensity at excitation/emission wavelengths of 365 ± 50/535 ± 45. The nuclei borders were expanded radially by 3.2 µm to define a virtual cell soma area (VCSA). In channel 2 (at excitation/emission wavelengths of 474 ± 40/535 ± 45), all calcein^+ pixels were identified as viable cell structures (VCS). An algorithm was applied that used the VCSA as a filter in the calcein channel and subtracted it from the VCS. The remaining pixels (VCS-VCSA) in the calcein channel were defined as neurite area and were represented relative to the untreated control.

[4] = test system: differentiated LUHMES cells; format: cell-based, human; details: at high concentrations, correlated with neurite degeneration
Experimental: Suppl. Fig. 10. Migration of mitochondria in neurites. Mitochondrial migration was detected in fully differentiated (day 6 of differentiation, DoD6) mixed LUHMES cultures consisting of 3% eGFP/mito-tRFP-overexpressing LUHMES in 97% unlabeled LUHMES in order to allow tracking of mitochondria in single neurites in an environment of normal LUHMES cell density (Schildknecht et al. 2013, ALTEX 30(4):427-444). Single cell time lapse imaging was performed for a period of 90 s in intervals of 3 s with a Zeiss LSM 780 inverted fluorescence microscope YOKOGAWA CSU-XI spinning disk system using an EVOLVE camera (Carl Zeiss Group, Oberkochen, Germany) equipped with a 5% CO2 /37°C controlled chamber and a 40 x 1.3 NA oil objective. For image analysis, kymographs (graphical representation of spatial position over time) based on the data obtained from single cell time lapse experiments were created using ImageJ Software (NIH, Bethesda, USA). The neurite was manually defined by the segmented line tool. To calculate mitochondrial velocity, diagonal lines were drawn for each moving mitochondrium in the kymograph and analysed by calculating the slope with the macro-plugin Kymo Line ROI, generated by Felix Schöneberger, Bioimaging Center (BIC), University of Konstanz, Germany.
(1 picture or pasted object on this page, not shown here)

Compound | cell damage (viability, MTS reduction) [1] | skin sensitizer classification [2] | ARE-dependent luciferase expression [2] | concentration moderately affecting neurite mass and reducing cell viability [3] [µM] | concentration producing acute toxicity [1] [µM] | cell viability (PrestoBlue) in KeratinoSens cells [2] | mitochondrial velocity [4] | cell viability [3] | neurite integrity [3] | increase in ARE-dependent luciferase expression ([2]; at a concentration of 3 µM, in the absence of significant cell death)
O=[PH]1Oc2ccccc2-c2ccccc21 (stereo not drawn) [DOPO, 9,10-dihydro-9-oxa-10-phosphaphenanthrene-10-oxide] | no signs of cell damage | No specific effects | neither induced luciferase activity | > 50 | – | – | – | – | – | –
O=P1(NCCNP2(=O)Oc3ccccc3-c3ccccc32)Oc2ccccc2-c2ccccc21 (stereo not drawn) [EDA-DOPO, 6,6′-(ethane-1,2-diylbis(azanediyl))bis(6H-dibenzo[c,e][1,2]oxaphosphinine-6-oxide)] | no signs of cell damage | No specific effects | neither induced luciferase activity | > 50 | – | – | – | – | – | –
O=P1(OCCOP2(=O)Oc3ccccc3-c3ccccc32)Oc2ccccc2-c2ccccc21 (stereo not drawn) [EG-DOPO, 6,6′-(ethane-1,2-diylbis(oxy))bis(6H-dibenzo[c,e][1,2]oxaphosphinine-6-oxide)] | – | No specific effects | increase in ARE-dependent luciferase expression | – | > 20 | decline in cell viability | influenced mitochondrial velocity | significantly affected | significantly affected | –
O=P1(NCCOP2(=O)Oc3ccccc3-c3ccccc32)Oc2ccccc2-c2ccccc21 (stereo not drawn) [ETA-DOPO, 6-(2-((6-oxido-6H-dibenzo[c,e][1,2]oxaphosphinin-6-yl)amino)ethoxy)-6H-dibenzo[c,e][1,2]oxaphosphinine 6-oxide] | – | No specific effects | increase in ARE-dependent luciferase expression | > 50 | > 20 | decline in cell viability | influenced mitochondrial velocity | – | – | –
Brc1ccc(Oc2cc(Br)c(Br)cc2Br)c(Br)c1 [PBDE-99, reference compound] | no signs of cell damage | – | – | – | – | absence of significant cell death | influenced mitochondrial velocity | significantly affected | significantly affected | ca. twofold
